# Experimental data published in patent US11628146B2, “Estrogen receptor ligand treatment for neurodegenerative diseases” (The Regents of the University of California, priority 2014, dated 2023).
# Entries after “also recorded” stand apart in the source; their conditions may differ.
# Legend:
# EAE in C57BL/6 mice [1] = assay: Standard EAE clinical score (0-5 scale), MOG 35-55 induced EAE, C57BL/6 mice; type: in vivo, mouse
# From the text: (§1) Animals. C57BL/6 and NOD mice 8 weeks old were purchased from Jackson Laboratories (Bar Harbor, Me.). Animals were maintained under environmentally controlled conditions in a 12-hour light/dark cycle with access to food and water ad libitum. All procedures were done in accordance with the guidelines of the National Institutes of Health and the Chancellor's Animal Research Committee of the University of California, Los Angeles Office for the Protection of Research Subjects.
# (§2) Reagents. AC-186 was dissolved in either Miglyol 812N liquid oil (Sasol North America) or sesame oil (Sigma Aldrich) as following concentration; 1.5 mg/mL for 3 mg/kg group, 5 mg/mL for 10 mg/kg group, and 15 mg/mL for 30 mg/kg group. Diarylpropionitrile (DPN, Tocris Biosciences) was dissolved in 10% molecular-grade ethanol and diluted with 90% of either Miglyol 812N liquid oil or sesame oil.
# (§3) EAE and Treatments. Animals were injected subcutaneously with Myelin Oligodendrocyte Glycoprotein (MOG), amino acids 35-55 (200 μg/animal, American Peptides), emulsified in complete Freund's adjuvant (CFA) and supplemented with Mycobacterium tuberculosis H37ra (300 μg/animal, Difco Laboratories), over two sites drained by left inguinal and auxiliary lymph nodes in a total volume of 0.1 ml/mouse. One week later, a booster immunization was delivered over contra lateral lymph nodes. Pertussis toxin (500 ng/mouse) (List Biological Laboratories, Inc.) was injected intraperitoneally on days 0 and 2. Animals were monitored daily for EAE signs based on a standard EAE 0-5 scale scoring system: 0—healthy, 1—complete loss of tail tonicity, 2—loss of righting reflex, 3—partial paralysis, 4—complete paralysis of one or both hind limbs, and 5—moribund. Animals received 0.05 ml of either of 1.5, 5, 15 mg/mL AC-186, vehicle (sesame oil or Miglyol 812N liquid oil), or DPN (8 mg/kg/day) via subcutaneous injections every other day. Animals were treated with AC-186 or vehicle after EAE induction. Specifically, treatment was initiated at the first clear signs of clinical disease (EAE day 13-15), and continued to the endpoint of the experiment.
# EAE in NOD mice = assay: Standard EAE clinical score (0-5 scale), MOG-induced EAE, NOD mice; type: in vivo, mouse; conditions: NOD females; DPN in miglyol vehicle; vs vehicle
# From the text: as §1, §2, §3
# EAE in C57BL/6 mice [2] = assay: Rotarod testing of motor coordination and balance in EAE, C57BL/6 mice; type: in vivo, mouse; conditions: DPN in 10% ethanol/miglyol vs miglyol vehicle (FIG. 4; strain not given)
# Method: Rotarod Testing. Motor behavior was tested up to two times per week for each mouse using a rotarod apparatus (Med Associates Inc., St. Albans, Vt.). Briefly, animals were placed on a rotating horizontal cylinder for a maximum of 200 seconds. The amount of time the mouse remained walking on the cylinder, without falling, was recorded. Each mouse was tested on a speed of 3-30 rpm and given three trials for any given day. The three trials were averaged to report a single value for an individual mouse, and then averages were calculated for all animals within a given treatment group. The first two trial days prior to immunization (day 0), served as practice trials.
# [3] = Dissolution of the compound in the oil vehicle; type: physicochemical; conditions: DPN; needed ethanol first
# Method: as §2
# Three doses of the AC-186 compound were tested in C57BL6 female mice: low (3 mg/kg, every other day), medium (10 mg/kg, every other day), and high (30 mg/kg, every other day), each injected subcutaneously in a sesame oil vehicle. The ERβ ligand diarylpropionitrile (DPN) was tested as a positive control because DPN can partially ameliorate EAE and because the treatment effects in EAE experiments can vary based on the level of disease severity within an experiment. Direct comparisons between treatments were only made between treatment groups within a single EAE experiment and not between treatment groups of different EAE experiments. […] The difference in improvement between the 30 mg/kg AC-186 group and all other groups increased with time.
# EAE in C57BL/6 mice [4] = conditions: DPN in Miglyol carrier; previous work; cited from earlier work
# [5] = system: spinal cords of C57BL/6 females with EAE; conditions: DPN; previous experiments; cited from earlier work
# [6] = system: healthy female C57BL/6 mice (no EAE induced); assay: Morris water maze (spatial memory) in ovariectomized mice; type: in vivo, mouse; conditions: for Morris water maze learning (time in target quadrant): ovariectomized, estriol-treated mice (OVX-Estriol) vs OVX-Placebo
# Method: FIG. 25. Peripheral estrogens improve performance on the Morris water maze via ERβ expressed on neurons. Healthy female C57BL/6 (with no EAE induced) were tested for cognitive performance (spatial memory) using the Morris water maze, whereby mice learn to spend more time in a target quadrant (TQ) as compared to three other quadrants (OQ). […] (Bottom graph) To determine (a) whether ER beta is required for proper learning and, more specifically, (b) whether ER beta expression in neurons is required for learning, mice were generated that had ER beta conditionally knocked out using CreLox technology, with Cre driving the knock out in neurons via the neuron-specific enolase (NSE) promoter. […] (***p≤0.001, ANOVA-Sidak's posttest). […] The dashed line on the graphs indicates the time expected to be spent in a quadrant by random chance in the absence of learning (25%).
Structure (SMILES),EAE score (EAE in C57BL/6 mice [1]; DPN in 10% ethanol/miglyol vs miglyol vehicle (FIG. 4; strain not given)),"EAE score (EAE in C57BL/6 mice [1]; female C57BL/6, DPN in 10% ethanol in sesame oil)",EAE score (EAE in NOD mice),Rotarod times (EAE in C57BL/6 mice [2]),Dissolution in sesame oil [3],EAE amelioration (EAE in C57BL/6 mice [4]),CD45 staining in the CNS [5],Iba-1 globoid cell staining [5],"Morris water maze learning (% duration in target quadrant) ([6]; OVX-Estriol NSE-Cre:ERβ fl/fl mice (neuronal ER beta knockout), listed as Estriol)",Morris water maze learning (time in target quadrant) [6],Morris water maze learning (time in target quadrant) ([6]; listed as Estriol)
"N#CC(Cc1ccc(O)cc1)c1ccc(O)cc1 (centres unmarked) [DPN, Diarylpropionitrile, reference compound]",protects against EAE better; also recorded: better EAE scores,not effective,significantly ameliorated EAE; also recorded: better EAE scores,better performance with the rotarod test,difficult to dissolve in sesame oil,ameliorated EAE,no significant effect on CD45 staining; also recorded: no effect on CD45 or Iba-1 globoid cell staining,no effect on CD45 or Iba-1 globoid cell staining,,,
C[C@]12CC[C@@H]3c4ccc(O)cc4CC[C@H]3[C@@H]1C[C@@H](O)[C@@H]2O [estriol],,,,,,,,,estrogen-mediated improvement is lost,ability to learn may be restored,improves performance
